≈ marks a conversion by molar mass, not a printed value.
Assays:
Type in all cases: functional
Myzus persicae = assay: Insecticidal activity against Myzus persicae (green peach aphid) in compound treated radish leaf assessed as mortality at 500 ppm
Plutella xylostella = assay: Insecticidal activity against Plutella xylostella (diamondback moth) in compound treated radish leaf assessed as mortality at 500 ppm
Nephotettix cincticeps = assay: Insecticidal activity against Nephotettix cincticeps (green rice leafhopper) in compound treated rice seedlings assessed as mortality at 500 ppm
Tetranychus urticae = assay: Acaricidal activity against Tetranychus urticae (two-spotted spider mite) in compound treated kidney bean leaf assessed as larvicidal activity

Structure (SMILES)	mortality at 500 ppm (Myzus persicae) [%]	mortality at 500 ppm (Plutella xylostella) [%]	mortality at 500 ppm (Nephotettix cincticeps) [%]	LC50 (Tetranychus urticae) [µg/mL]
CC(C)Cc1ccc(C2COC(c3c(F)cccc3F)=N2)cc1 (configuration not stated)	100	60	0	< 0.001
Fc1cccc(F)c1C1=NC(c2ccc(OC(F)(F)F)cc2)CO1 (configuration not stated)	100	85	35	0.001 (≈ 0.00291 µM)
Fc1cccc(F)c1C1=NC(c2cccc(Cl)c2)CO1 (configuration not stated)	0	0	0	1 (≈ 3.4 µM)
C[S+]([O-])c1ccc(C2COC(c3c(F)cccc3F)=N2)cc1 (configuration not stated)	60	60	0	10 (≈ 31.1 µM)
CCCCCCc1ccc(C2COC(c3c(F)cccc3F)=N2)cc1F (configuration not stated)	0	0	0	0.1 (≈ 0.277 µM)
CCCOc1cc(C(C)(C)C)ccc1C1COC(c2c(F)cccc2F)=N1 (configuration not stated)	100	85	60	0.001 (≈ 0.00268 µM)
CCCCCCc1ccc(C2COC(c3c(F)cccc3F)=N2)c(Cl)c1 (configuration not stated)	100	100	100	< 0.001
CCOc1cc(Br)ccc1C1COC(c2c(F)cccc2F)=N1 (configuration not stated)	0	10	100	0.1 (≈ 0.262 µM)
Fc1cccc(F)c1C1=NC(c2ccccc2Cl)CO1 (configuration not stated)	100	35	85	0.1 (≈ 0.34 µM)
CCc1ccccc1C1COC(c2c(F)cccc2F)=N1 (configuration not stated)	0	0	60	1 (≈ 3.48 µM)
CCCCCCCCCCc1ccc(C2COC(c3c(F)cccc3F)=N2)c(Cl)c1 (configuration not stated)	0	85	0	0.1 (≈ 0.23 µM)
CCOc1cc(C(C)C)ccc1C1COC(c2c(F)cccc2F)=N1 (configuration not stated)	100	60	100	0.01 (≈ 0.029 µM)
CCCCCCOc1cc(C(C)(C)C)ccc1C1COC(c2c(F)cccc2F)=N1 (configuration not stated)	10	100	60	0.1 (≈ 0.241 µM)
COc1cc(F)ccc1C1COC(c2c(F)cccc2F)=N1 (configuration not stated)	100	10	100	0.1 (≈ 0.325 µM)
CCCCCCCCCCCCc1ccc(C2COC(c3c(F)cccc3F)=N2)c(F)c1 (configuration not stated)	0	100	0	0.01 (≈ 0.0224 µM)
C[Si](C)(C)c1ccc(C2COC(c3c(F)cccc3F)=N2)cc1 (configuration not stated)	100	100	60	< 0.001
COc1ccc(C2COC(c3c(F)cccc3F)=N2)cc1 (configuration not stated)	85	0	10	1 (≈ 3.46 µM)
COc1cc(Cl)ccc1C1COC(c2c(F)cccc2F)=N1 (configuration not stated)	100	10	100	0.1 (≈ 0.309 µM)
Cc1ccc(C2COC(c3c(F)cccc3F)=N2)cc1 (configuration not stated)	100	0	60	0.1 (≈ 0.366 µM)
CC(C)Sc1ccc(C2COC(c3c(F)cccc3F)=N2)cc1 (configuration not stated)	85	10	10	0.1 (≈ 0.3 µM)
Fc1ccc(C2COC(c3c(F)cccc3F)=N2)cc1Cl (configuration not stated)	100	60	10	0.1 (≈ 0.321 µM)
CCOc1cccc(C2COC(c3c(F)cccc3F)=N2)c1 (configuration not stated)	0	0	0	1 (≈ 3.3 µM)

Structure (SMILES)	mortality at 500 ppm (Myzus persicae) [%]	mortality at 500 ppm (Plutella xylostella) [%]	mortality at 500 ppm (Nephotettix cincticeps) [%]	LC50 (Tetranychus urticae) [µg/mL]
CC(C)c1ccc(C2COC(c3c(F)cccc3F)=N2)cc1 (configuration not stated)	100	0	60	0.001 (≈ 0.00332 µM)
CCCCOc1cc(C(C)(C)C)ccc1C1COC(c2c(F)cccc2F)=N1 (configuration not stated)	100	35	0	0.01 (≈ 0.0258 µM)
CCc1ccc(C2COC(c3c(F)cccc3F)=N2)cc1 (configuration not stated)	100	0	60	0.001 (≈ 0.00348 µM)
CCc1ccc(C2COC(c3c(F)cccc3F)=N2)c(Cl)c1 (configuration not stated)	0	0	0	0.001 (≈ 0.00311 µM)
COc1cc(C(C)(C)C)ccc1C1COC(c2c(F)cccc2F)=N1 (configuration not stated)	100	85	35	0.001 (≈ 0.0029 µM)
CCCCCCCCCCCCc1ccc(C2COC(c3c(F)cccc3F)=N2)c(Cl)c1 (configuration not stated)	0	60	0	0.1 (≈ 0.216 µM)
Fc1cccc(F)c1C1=NC(c2ccc(Cl)cc2)CO1 (configuration not stated)	0	0	60	0.001 (≈ 0.0034 µM)
CCOc1cc(F)ccc1C1COC(c2c(F)cccc2F)=N1 (configuration not stated)	100	85	100	0.001 (≈ 0.00311 µM)
Fc1ccc(C2COC(c3c(F)cccc3F)=N2)c(Cl)c1 (configuration not stated)	100	0	35	0.1 (≈ 0.321 µM)
CS(=O)(=O)c1ccc(C2COC(c3c(F)cccc3F)=N2)cc1 (configuration not stated)	85	60	0	100 (≈ 296 µM)
Fc1cccc(F)c1C1=NC(c2ccc(Cl)cc2Cl)CO1 (configuration not stated)	100	60	60	0.01 (≈ 0.0305 µM)
CCCCOc1cc(F)ccc1C1COC(c2c(F)cccc2F)=N1 (configuration not stated)	60	85	100	< 0.001
Fc1cc(Cl)ccc1C1COC(c2c(F)cccc2F)=N1 (configuration not stated)	100	0	0	< 0.001
CCCCCCCc1ccc(C2COC(c3c(F)cccc3F)=N2)c(F)c1 (configuration not stated)	100	100	0	< 0.001
CCOc1cc(Cl)ccc1C1COC(c2c(F)cccc2F)=N1 (configuration not stated)	100	100	100	0.1 (≈ 0.296 µM)
Fc1cccc(F)c1C1=NC(c2ccc(Cl)c(Cl)c2)CO1 (configuration not stated)	100	60	0	0.1 (≈ 0.305 µM)
Fc1cc(C2COC(c3c(F)cccc3F)=N2)ccc1Cl (configuration not stated)	100	35	60	0.01 (≈ 0.0321 µM)
CCCCCCCCc1ccc(C2COC(c3c(F)cccc3F)=N2)c(OC)c1 (configuration not stated)	100	85	0	0.01 (≈ 0.0249 µM)
CCCCCCCCCCc1ccc(C2COC(c3c(F)cccc3F)=N2)c(F)c1 (configuration not stated)	10	100	0	0.001 (≈ 0.0024 µM)
COc1cccc(C2COC(c3c(F)cccc3F)=N2)c1 (configuration not stated)	0	0	0	1 (≈ 3.46 µM)
CCCCCCCCc1ccc(C2COC(c3c(F)cccc3F)=N2)cc1 (configuration not stated)	100	85	0	< 0.001
